How the values were obtained:
Assay in all cases: relative viability (nuclei count vs DMSO), 5 days (fraction); higher = more cells survive
[1] = compound: C/C(=N\NC(=S)N1CCC1)/C2=CC=CC=N2
How it was run: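 Nuclei counted with MetaXpress define viability as the ratio of treated to vehicle wells, given as a median across plates. The lung cancer cell lines were in 1536-well plates, pinned with five √10-spaced library-drug doses and imaged at 4× after 5 days and Hoechst staining. Plates passed with control CV below 25% and at least one doubling.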

[2] = compound: C/C(=N\NC(=S)N1CCC1)/C2=CC=CC=N2 + CC1(C)CCC(c2ccc(Cl)cc2)=C(CN2CCN(c3ccc(C(=O)NS(=O)(=O)c4ccc(N[C@H](CCN5CCOCC5)CSc5ccccc5)c(S(=O)(=O)C(F)(F)F)c4)cc3)CC2)C1 [Navitoclax] (partner 0.5 µM)
How it was run: (§1)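 After 5 days of treatment, lung cancer cells in 1536-well plates were fixed and stained in a single step (final 0.05% Triton X-100, 1% formaldehyde, 1 ug/ml Hoechst) and their nuclei counted on 4× images. Treatment had been applied by pin tool the day after seeding as one drug alone or as a fixed anchor-drug dose with five library-drug doses (not always all listed) in √10 steps. Relative viability is the nuclei count of treated wells divided by that of vehicle wells, and values are medians of duplicate plates.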

[3] = compound: C/C(=N\NC(=S)N1CCC1)/C2=CC=CC=N2 + Cc1cc(Nc2cc(N3CCN(C)CC3)nc(Sc3ccc(NC(=O)C4CC4)cc3)n2)n[nH]1 [Tozasertib] (partner 0.1 µM)
How it was run: as §1

[4] = compound: C/C(=N\NC(=S)N1CCC1)/C2=CC=CC=N2 + N=C(N)NC(=N)NCCc1ccccc1 [Phenformin] (partner 250 µM)
How it was run: as §1

Cell Line | relative viability ([1]; 0.05 µM) | relative viability ([1]; 0.1581 µM) | relative viability ([1]; 0.5 µM) | relative viability ([1]; 1.581 µM) | relative viability ([1]; 5 µM) | relative viability ([2]; first compound 0.05 µM) | relative viability ([2]; first compound 0.1581 µM) | relative viability ([2]; first compound 0.5 µM) | relative viability ([2]; first compound 1.581 µM) | relative viability ([2]; first compound 5 µM) | relative viability ([3]; first compound 0.05 µM) | relative viability ([3]; first compound 0.1581 µM) | relative viability ([3]; first compound 0.5 µM) | relative viability ([3]; first compound 1.581 µM) | relative viability ([3]; first compound 5 µM) | relative viability ([4]; first compound 0.05 µM) | relative viability ([4]; first compound 0.1581 µM) | relative viability ([4]; first compound 0.5 µM) | relative viability ([4]; first compound 1.581 µM) | relative viability ([4]; first compound 5 µM)
HCC-15 | 0.0583 | 0.0886 | 0.0939 | 0.094 | 0.0906 | 0.198 | 0.392 | 0.0695 | 0.092 | 0.0784 | 0.0765 | 0.0513 | 0.112 | 0.0654 | 0.0641 | 0.0651 | 0.134 | 0.144 | 0.0712 | 0.0989
HCC-44 | 0.351 | 0.279 | 0.299 | 0.246 | 0.24 | 0.782 | 0.311 | 0.194 | 0.222 | 0.258 | 0.359 | 0.309 | 0.257 | 0.246 | 0.231 | 0.0955 | 0.14 | 0.0915 | 0.153 | 0.188
HCC-78 | 0.459 | 0.472 | 0.355 | 0.232 | 0.234 | 0.492 | 0.245 | 0.218 | 0.189 | 0.12 | 0.332 | 0.205 | 0.248 | 0.206 | 0.202 | 0.279 | 0.367 | 0.314 | 0.247 | 0.213
HCC-366 | 0.0382 | 0.0453 | 0.0381 | 0.0627 | 0.0401 | 0.0139 | 0.0237 | 0.0184 | 0.0179 | 0.0172 | 0.0183 | 0.0481 | 0.0208 | 0.0215 | 0.0265 | 0.0354 | 0.0736 | 0.0328 | 0.0375 | 0.0286
HCC-827 | 0.44 | 0.359 | 0.316 | 0.275 | 0.205 | 0.639 | 1.02 | 0.308 | 0.273 | 0.241 | 0.383 | 0.36 | 0.225 | 0.185 | 0.148 | 0.222 | 0.239 | 0.201 | 0.173 | 0.175
HOP-62 | 0.111 | 0.0963 | 0.114 | 0.11 | 0.114 | 0.169 | 0.0748 | 0.0823 | 0.104 | 0.0618 | 0.129 | 0.109 | 0.0803 | 0.104 | 0.0835 | 0.0721 | 0.0624 | 0.0719 | 0.0958 | 0.0779
LC-2-ad | 0.209 | 0.242 | 0.217 | 0.163 | 0.231 | 0.0933 | 0.0992 | 0.0713 | 0.0966 | 0.121 | 0.253 | 0.244 | 0.23 | 0.171 | 0.207 | 0.29 | 0.277 | 0.259 | 0.19 | 0.226
LCLC-97TM1 | 0.0886 | 0.109 | 0.0593 | 0.0801 | 0.0822 | 0.124 | 0.421 | 0.0929 | 0.115 | 0.104 | 0.193 | 0.218 | 0.105 | 0.128 | 0.165 | 0.128 | 0.189 | 0.109 | 0.166 | 0.139

Source: the supplement of paper PMC10307832
